| SMILES | melting point |
| --- | --- |
| Cc1c(Br)c2cnnc(OCc3ccccc3)c2n1Cc1ccccc1 | 122 to 123 °C |
| CC(=O)OC1COC(N=[N+]=[N-])C(OC(C)=O)C1OC(C)=O (centres undefined) | 76 °C |
| CC(C)c1cccc(C(C)C)c1NS(=O)(=O)CC(=O)NC(c1ccccc1)c1ccccc1 | 166 to 167 °C |
| CC(=Cc1ccsc1)N(O)C(N)=O | 165 to 167 °C |
| COC(=O)C(=Cc1ccc(OCCc2nc(-c3ccccc3)oc2C)cc1)C(=O)OC | 104 to 105 °C |
| O=[N+]([O-])c1nccn1CC(O)CC1C2CCCN21 (centres undefined) | 81 to 81.5 °C |
| Cc1ccccc1-c1c(CNC(=O)Nc2ccc(F)cc2F)oc2ccc(Cl)cc12 | 178 to 180 °C |
| CCOc1cc(-c2cc(C(F)F)n3ncc(C(=O)Nc4cccc(S(C)(=O)=O)c4)c3n2)ccc1C(F)(F)F | 211 °C |
| CC(C)(CC(N)=O)C(Br)(Br)Br | 109 to 111 °C |
| c1ccc(-c2nc(-c3ccc4c(c3)OCO4)c3cc4c(cc3n2)OCO4)cc1 | 225 to 230 °C |
| Cc1c(-c2ccc(F)cc2)c(-c2ccccc2)nn1C(C)C | 135 to 137 °C |
| Cc1c(O)ccc(S)c1C | 98 to 99 °C |
| Nc1c(F)c(F)nc(-n2cc(C(=O)O)c(=O)c3cc(F)c(F)c(Cl)c32)c1F | 280 to 283 °C |
| O=C(O)CCCNC(=O)c1cccc(NC(=O)c2ccccc2O)c1 | 172 to 174 °C |
| CCCCN(N)C(=O)NC | 48 to 50 °C |
| Cn1ccnc1Sc1ccc(Nc2c(C#N)cnc3cc(F)ccc23)cc1Cl | 268 to 272 °C |
| N#Cc1ccc(C2=NOC(CO)C2)c2ccccc12 (centres undefined) | 138 to 139 °C |
| CCCCOC(=O)N(C)c1cccc(-c2ccnc3c(C#N)cnn23)c1 | 96 to 97 °C |
| CCn1c(N(C)C)nc2cc(C(F)(F)F)c(Cl)c(N)c21 | 99 to 100 °C |
| O=c1ccc(C(F)(F)F)cn1Cc1ccccc1NCCO | 114 to 115 °C |
| COC(=O)c1cccc(NC(=O)CC(=O)c2ccccc2)c1C(=O)OC | 100 to 103 °C |

| SMILES | melting point |
| --- | --- |
| Cc1ccc(SSc2ccc(C)cc2C(=O)Nc2ccc(S(N)(=O)=O)cc2)c(C(=O)Nc2ccc(S(N)(=O)=O)cc2)c1 | 307 °C |
| COC(=O)COc1ccc(-c2ccc3c(c2)c(C)c(-c2ccccc2)n3Cc2ccccc2)cc1 | 167 to 170 °C |
| C=CCSc1nc(=O)n(C(=O)NC)s1 | 110 °C |
| CN(C)C(=O)Nc1ccc(SCCc2ccccc2)c(Cl)c1 | 133 to 134 °C |
| CC(=O)OC(C(=O)O)c1c(C(C)C)cc(C(C)C)cc1C(C)C (centres undefined) | 166 to 169 °C |
| COC(=O)C=Cc1cc(O)c(O)c([N+](=O)[O-])c1 | 186 to 187 °C |
| CCN(CC)C(=O)CCc1nc(-c2ccccc2Cl)nc2ccccc12 | 90 °C |
| O=C(NC1CN2CCC1CC2)C1(O)c2ccccc2-c2ccccc21 (centres undefined) | 230 °C |
| Brc1ncnn1C(c1ccccc1)(c1ccccc1)c1ccccc1 | 239 to 241 °C |
| C[Si]1(C)CCCCCCCC[Si](C)(C)O[Si](C)(C)CCCCCCCC[Si](C)(C)O1 | 67 to 69 °C |
| O=c1oc(-c2ccc(Oc3ccccc3)cc2)cc(O)c1SCCc1ccccc1 | 127 to 128 °C |
| O=C(N[C@H](Cc1ccc(C(F)(F)F)o1)[C@@H](O)c1ccc(F)cc1)c1ccc(F)c2ccccc12 (racemic) | 153 to 154 °C |
| CCCC1CCC(C2CC3(C2)CC(C(F)(F)Oc2cc(F)c(F)c(F)c2)C3)CC1 (centres undefined) | 43 °C |
| Cc1nnc(-c2ccc3occ(-c4ccc(S(C)(=O)=O)cc4)c3n2)o1 | 250 to 251 °C |
| CONC(=N)c1nc(C)c(I)c(NCC(F)(F)F)n1 | 150 to 152 °C |
| COc1cc(CCNC(=O)C(NC(=O)OC(C)(C)C)C(C)C)ccc1OCC#Cc1ccc(Cl)cc1 (centres undefined) | 141 to 142 °C |
| CCOC(=O)c1c(-c2ccccc2C)c2cc(Cl)ccc2oc1=O | 65 to 66 °C |
| CCOC(=O)c1cc(/C=C/c2ccc3ccccc3n2)cn1C | 140 to 142 °C |
| O=C(NCO)c1cccc(Oc2ccccc2)c1 | 112 to 113 °C |
| COc1cc(-c2nc(-c3ccc(N(C)C)cc3)c(C)o2)ccc1OC(C)=O | 97 to 102 °C |
| COc1cc(/C=C/S(=O)(=O)CS(=O)(=O)/C=C/c2cc(OC)c(OC)c(OC)c2)cc(OC)c1OC | 127 to 129 °C |

The remaining lines, values ahead:

| melting point | SMILES |
| --- | --- |
| 157 to 159 °C | COc1cc(NC(C)=O)ccc1OCCO |
| 159 to 160 °C | CNc1nc(C)nc(N2CCCc3ccccc32)n1 |
| 202 to 205 °C | CC(C)(C)OC(=O)N1CCC(c2ccc(C(=O)N3CCc4cc(S(C)(=O)=O)ccc43)nc2)CC1 |
| 98 to 99 °C | CCOC(=O)C1CCN(c2nc(COc3ccc(CCl)cc3OC)c(C)s2)CC1 |
| 286 to 287 °C | O=C(O)c1ccc(C2=NCCO2)nc1 |
| 107 to 109 °C | O=C1CCN=C(c2ccccc2F)c2cc(Cl)ccc21 |
| 203 to 204 °C | CCOC(=O)c1nc(NC(=N)N=CN(C)C)sc1-c1ccncc1 |
| 185 to 187 °C | C#CC1(O)CCC2C3CCC4=CC(=O)CCC4C3C(C(F)F)CC21C (centres undefined) |
| 206 °C | O=C(Nc1ccccn1)c1nc2ccccc2[nH]1 |
| 223 to 225 °C | CC(C)(C)OC(=O)N1CCC(CCc2c3c(nn2C(C)(C)C)c(=O)[nH]c2ccccc23)CC1 |
| 188 to 190 °C | O=Cc1cc2cc(Cl)ccc2nc1Cl |
| 150 to 152 °C | O=[N+]([O-])c1cccnc1Nc1cc(F)ccc1F |
| > 260 °C | O=C1CCC2=C1C(c1ccc(F)c(F)c1)C1=C(CCS1)N2 (centres undefined) |
| 99 to 101 °C | O=C1CCCCC1c1ccncc1 (centres undefined) |
| 152 to 154 °C | COc1cc(OC)cc(-c2ncoc2-c2ccc(OC)c(N)c2O)c1 |
| 63 to 65 °C | COC(=O)c1ccc(SC)c(N)c1 |
| 107 to 109 °C | Cc1ccc(S(=O)(=O)OCCc2ccc3cc(Br)ccc3n2)cc1 |
| 30 to 31 °C | CCOc1ccnc(Cl)n1 |
| 154 °C | Oc1ccc([C@H]2CC[C@H](CCC3OCCO3)CC2)cc1 |
| 130 to 145 °C | C=CCn1c(=O)[nH]c(=O)n(-c2cc(N3C(=O)C4=C(CCCC4)C3=O)c(F)cc2Cl)c1=O |
| 127 to 130 °C | O=Cc1c(O)ccc2cccnc12 |

| melting point | SMILES |
| --- | --- |
| 67 to 69 °C | CCOC(=O)N1CCC23CCCCC12c1ccccc1CC3 (centres undefined) |
| 235 to 237 °C | COCc1cc2c(c3c1[nH]c1ccc(O)cc13)C(=O)N(CCN(C)C)C2=O |
| 110 to 111 °C | COc1cc(OC)cc(C(=O)NCCCSc2ccncc2)c1 |
| 106 to 111 °C | COc1ccc(COc2ccc(COc3ccc4c(c3)CCC(CN(C)C)C4)cc2)cc1 (centres undefined) |
| 135 to 145 °C | COC(=O)C1=C(C)NC(C)=C(C(=O)OC)C1c1cccc(NC(=NC#N)N(C)CCCN2CCC(c3ccccc3)CC2)c1 |
| 132 °C | Nc1cc(=O)n(Cc2cccc(Cl)c2)[nH]1 |
| 169 to 170 °C | Clc1cnc2c(NCc3ccccc3)nc(Cl)nc2c1 |
| 157 to 159 °C | CCN(C(=O)C1CCC1)c1cccc(-c2ccc3nnc(C)n3n2)c1 |
| 125 °C | CC(=O)N1C(=O)N(c2cc(Cl)cc(Cl)c2)C(=O)[C@]12CNC[C@H]2c1ccc(C#N)cc1 (relative stereo) |
| 158 to 160 °C | Cc1ccc(S(=O)(=O)N2Cc3csc(C)c3C2)cc1 |
| 155 to 157 °C | Sc1ccc(OCc2ccccc2)nn1 |
| 170 °C | COc1ccc(-n2cnnc2C(C)O)cc1 (centres undefined) |
| 220 to 222 °C | C=CCOC(=O)c1c(C)nc2[nH]c3ccccc3c2c1N |
| 198 °C | O=C(COc1cc(-c2cccs2)nc2ccccc12)N1CCOCC1 |
| 109 to 110 °C | O=C1C=CC(=O)N1c1ccc(Cl)cc1 |
| 225 to 226 °C | Cc1noc(NC(=O)N2CCN(c3cncc(-c4ccc(F)cc4F)n3)CC2)c1C |
| 152 to 154 °C | O=S(=O)(c1ccccc1)N1CCC(C(O)(c2ccc(F)c(F)c2)c2ccc(F)c(F)c2)CC1 |
| 180 to 185 °C | CC(=O)c1c(Sc2cc(Cl)cc(Cl)c2)[nH]c2ccc(Cl)cc12 |
| 194 to 196 °C | CC(C)c1n[nH]c2c(NCc3ccccc3Br)ncnc12 |
| 114 to 117 °C | CCC(=O)c1cccc2cccc(O)c12 |
| 106 to 119 °C | NC1=NC(c2cccc(-c3cccnc3F)c2)(c2ccc3c(c2)OCO3)C2=NCCCN12 (centres undefined) |

| melting point | SMILES |
| --- | --- |
| 211 to 214 °C | O=S1(=O)N=C(n2ccnc2)Nc2ccc(C(F)(F)F)cc21 |
| 55.5 to 56.5 °C | O=Cc1ccc2c(c1)Sc1ccccc1CC2 |
| 60 to 62 °C | CCN1c2ncccc2C(=O)N(C)c2ccc(-c3cnn(CC)c3)nc21 |
| 104 to 105 °C | Cc1nnc(-c2cccc(I)c2)o1 |
| 227 to 228 °C | O=C1c2c(O)cncc2C(=O)c2c(Cl)ccc(F)c21 |
| 153 °C | O=C(Nc1ccnc(Br)c1)C1(O)CCCC1 |
| 186 to 189 °C | CC(=O)OC1CSC(Oc2cccc(-c3cccc(Cl)n3)c2)C(OC(C)=O)C1OC(C)=O (centres undefined) |
| 135 °C | O=C(NC1CCC1)c1ccc(F)c2c1CC(N(CCCc1c[nH]c3ccc(F)cc13)C1CCC1)CO2 (centres undefined) |
| 57 to 59 °C | O=C1CCC(c2ccc(-c3ccc(F)cc3)o2)O1 (centres undefined) |
| 283 to 286 °C | O=C(NCc1ccc(Cl)cc1)c1cnc2c(I)cc(CO)cc2c1O |
| 100 to 102 °C | O=C(Oc1ccc([N+](=O)[O-])cc1)C(O)O |
| 145 °C | CCN1C(=O)N(c2cc(Cl)cc(Cl)c2)C(=O)[C@]12CN(S(=O)(=O)c1cccc(C(=O)O)c1)C[C@H]2c1ccc(C#N)cc1 (relative stereo) |
| 35 to 37 °C | O=Cc1c(F)cccc1Br |
| 168 to 169 °C | CC(C)(C)OC(=O)C(C1NC(C(=O)OCc2ccccc2)C2(CCOCC2)S1)N1C(=O)c2ccccc2C1=O (centres undefined) |
| 108 to 110 °C | CC1(C)CC(O)CC(C)(C)N1N=Nc1ccc([N+](=O)[O-])cc1 |
| 119 °C | CSc1ccc(O)nn1 |
| 84 °C | COc1ccc(C2CCc3cc(OC)ccc3C2CO)cc1 (centres undefined) |
| 168 to 169 °C | Cc1cccc(Cl)c1CNC(=O)C(C)Br (centres undefined) |
| 112 to 113 °C | CC(=O)c1ccc([N+](=O)[O-])c(Nc2cccc(-c3cccnc3)c2)c1 |
| 322 to 325 °C | Cc1cn(-c2cc(C)c3[nH]c(=O)ccc3c2)c(C)n1 |
